According to ChEMBL document CHEMBL1148572, “1-((S)-2-aminopropyl)-1H-indazol-6-ol: a potent peripherally acting 5-HT2 receptor agonist with ocular hypotensive activity” (J Med Chem, 2006):

Legend:
[1] = biological target: T1, B2 bradykinin receptor (Homo sapiens) (UniProt P30411); experiment: Inhibition of bradykinin 2 receptor at 1 nM
T1 sequence (whole entry): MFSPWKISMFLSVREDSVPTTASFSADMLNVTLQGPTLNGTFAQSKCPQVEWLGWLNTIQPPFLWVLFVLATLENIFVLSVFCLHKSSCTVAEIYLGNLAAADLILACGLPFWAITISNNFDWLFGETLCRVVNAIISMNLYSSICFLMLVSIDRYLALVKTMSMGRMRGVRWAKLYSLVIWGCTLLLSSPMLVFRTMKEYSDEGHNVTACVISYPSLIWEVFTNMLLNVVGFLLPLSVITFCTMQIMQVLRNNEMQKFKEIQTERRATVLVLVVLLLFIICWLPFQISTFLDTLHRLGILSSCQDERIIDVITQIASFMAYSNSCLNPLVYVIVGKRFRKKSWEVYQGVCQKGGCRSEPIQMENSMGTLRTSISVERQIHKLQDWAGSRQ

[2] = biological target: L-type calcium channel, dihydropyridine site (Homo sapiens, UniProt O60840+Q01668+Q13698+Q13936); experiment: Inhibitory activity at dihydropyridine site of Calcium channel L type at 100 nM; type: protein assay
[3] = biological target: 5-hydroxytryptamine receptor 6 (Homo sapiens, UniProt P50406); experiment: Inhibitory activity against 5HT6 receptor
5-hydroxytryptamine receptor 6, sequence (P50406 whole entry): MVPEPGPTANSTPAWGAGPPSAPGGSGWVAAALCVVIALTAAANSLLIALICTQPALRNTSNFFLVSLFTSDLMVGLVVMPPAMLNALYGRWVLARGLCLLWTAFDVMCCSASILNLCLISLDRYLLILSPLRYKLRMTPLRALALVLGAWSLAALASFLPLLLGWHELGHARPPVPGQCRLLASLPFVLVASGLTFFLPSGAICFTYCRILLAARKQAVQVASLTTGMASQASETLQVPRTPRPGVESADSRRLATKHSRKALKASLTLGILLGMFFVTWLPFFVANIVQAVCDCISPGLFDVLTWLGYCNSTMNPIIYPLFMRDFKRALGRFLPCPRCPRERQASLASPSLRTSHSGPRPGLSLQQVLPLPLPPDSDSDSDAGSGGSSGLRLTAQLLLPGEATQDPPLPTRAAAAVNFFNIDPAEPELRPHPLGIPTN

[4] = biological target: T2, monoamine oxidase A (MAO-A) (Rattus norvegicus, UniProt P21396); experiment: Inhibition of monoamine oxidase A in rat brain at 100 nM; type: tissue-based
T2 sequence (P21396 whole entry): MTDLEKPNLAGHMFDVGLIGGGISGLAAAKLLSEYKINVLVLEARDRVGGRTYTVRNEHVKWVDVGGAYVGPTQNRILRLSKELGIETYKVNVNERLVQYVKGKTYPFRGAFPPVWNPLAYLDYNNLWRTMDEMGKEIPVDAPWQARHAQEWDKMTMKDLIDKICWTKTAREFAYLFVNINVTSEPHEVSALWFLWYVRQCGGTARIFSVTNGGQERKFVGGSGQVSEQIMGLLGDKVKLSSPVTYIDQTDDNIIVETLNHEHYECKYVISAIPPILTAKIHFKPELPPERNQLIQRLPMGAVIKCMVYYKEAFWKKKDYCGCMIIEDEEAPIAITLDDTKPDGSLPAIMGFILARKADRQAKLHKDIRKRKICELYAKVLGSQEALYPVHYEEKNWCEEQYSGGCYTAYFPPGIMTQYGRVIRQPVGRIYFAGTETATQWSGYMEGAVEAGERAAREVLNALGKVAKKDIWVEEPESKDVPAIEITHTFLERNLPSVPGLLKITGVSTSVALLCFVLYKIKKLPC

[5] = biological target: Opioid receptors; mu/kappa/delta (Homo sapiens) (UniProt P41145+P41143+P35372); experiment: Inhibition of non selective binding to opiate receptor at 10 uM; type: protein assay
Opioid receptors; mu/kappa/delta (Homo sapiens), sequence (P35372 whole entry, looked up): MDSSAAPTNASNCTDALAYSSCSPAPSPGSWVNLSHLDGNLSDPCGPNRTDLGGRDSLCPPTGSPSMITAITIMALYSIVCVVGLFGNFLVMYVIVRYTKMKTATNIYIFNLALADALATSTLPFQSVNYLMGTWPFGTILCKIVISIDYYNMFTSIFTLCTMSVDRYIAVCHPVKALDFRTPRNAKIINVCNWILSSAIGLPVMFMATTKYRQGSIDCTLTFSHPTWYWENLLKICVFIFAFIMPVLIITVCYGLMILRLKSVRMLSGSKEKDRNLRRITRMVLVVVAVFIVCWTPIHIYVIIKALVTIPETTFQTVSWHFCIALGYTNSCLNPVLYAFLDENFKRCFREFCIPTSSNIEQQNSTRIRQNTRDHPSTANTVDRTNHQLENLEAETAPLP
Opioid receptors; mu/kappa/delta (Homo sapiens), sequence (P41143 whole entry, looked up): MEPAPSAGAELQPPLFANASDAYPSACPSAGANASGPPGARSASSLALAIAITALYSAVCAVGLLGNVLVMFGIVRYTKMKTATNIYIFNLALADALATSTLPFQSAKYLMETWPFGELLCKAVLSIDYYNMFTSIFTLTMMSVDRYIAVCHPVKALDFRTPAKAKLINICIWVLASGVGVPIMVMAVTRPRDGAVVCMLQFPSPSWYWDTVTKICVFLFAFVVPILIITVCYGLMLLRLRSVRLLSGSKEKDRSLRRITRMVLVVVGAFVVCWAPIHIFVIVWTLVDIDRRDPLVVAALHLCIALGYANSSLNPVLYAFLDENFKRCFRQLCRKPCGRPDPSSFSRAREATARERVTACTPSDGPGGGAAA
Opioid receptors; mu/kappa/delta (Homo sapiens), sequence (P41145 whole entry, looked up): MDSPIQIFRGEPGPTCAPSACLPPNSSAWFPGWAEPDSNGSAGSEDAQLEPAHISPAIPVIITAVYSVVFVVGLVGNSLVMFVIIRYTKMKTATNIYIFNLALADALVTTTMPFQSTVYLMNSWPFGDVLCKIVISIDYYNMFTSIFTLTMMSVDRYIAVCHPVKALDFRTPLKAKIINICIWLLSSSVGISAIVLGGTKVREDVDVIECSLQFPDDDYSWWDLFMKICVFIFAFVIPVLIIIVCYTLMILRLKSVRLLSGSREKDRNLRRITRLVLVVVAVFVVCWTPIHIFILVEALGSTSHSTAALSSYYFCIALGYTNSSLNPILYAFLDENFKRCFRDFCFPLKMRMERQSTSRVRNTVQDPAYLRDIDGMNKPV

[6] = biological target: 5-hydroxytryptamine receptor 1D (Homo sapiens, UniProt P28221); experiment: Inhibitory activity against 5HT1D receptor
5-hydroxytryptamine receptor 1D, sequence (P28221 whole entry): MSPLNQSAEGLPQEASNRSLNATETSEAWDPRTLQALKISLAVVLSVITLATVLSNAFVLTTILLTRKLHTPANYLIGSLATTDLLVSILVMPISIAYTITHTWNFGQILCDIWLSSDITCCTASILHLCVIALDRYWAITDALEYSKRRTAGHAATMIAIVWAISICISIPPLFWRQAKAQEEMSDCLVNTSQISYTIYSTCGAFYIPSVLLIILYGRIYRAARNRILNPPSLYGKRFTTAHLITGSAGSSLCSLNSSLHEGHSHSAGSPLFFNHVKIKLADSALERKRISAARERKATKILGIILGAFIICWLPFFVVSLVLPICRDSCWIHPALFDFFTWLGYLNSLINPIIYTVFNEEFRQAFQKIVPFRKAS

[7] = biological target: Glutamate receptor ionotropic kainate (Homo sapiens) (UniProt P39086+Q16478+Q16099+Q13002+Q13003); experiment: Inhibition of kainate receptor at 1 nM; type: protein-complex assay
[8] = biological target: T3, Cysteinyl leukotriene receptor 1 (Homo sapiens) (UniProt Q9Y271); experiment: Inhibition of leukotriene D4 at 10 uM
T3 sequence (whole entry): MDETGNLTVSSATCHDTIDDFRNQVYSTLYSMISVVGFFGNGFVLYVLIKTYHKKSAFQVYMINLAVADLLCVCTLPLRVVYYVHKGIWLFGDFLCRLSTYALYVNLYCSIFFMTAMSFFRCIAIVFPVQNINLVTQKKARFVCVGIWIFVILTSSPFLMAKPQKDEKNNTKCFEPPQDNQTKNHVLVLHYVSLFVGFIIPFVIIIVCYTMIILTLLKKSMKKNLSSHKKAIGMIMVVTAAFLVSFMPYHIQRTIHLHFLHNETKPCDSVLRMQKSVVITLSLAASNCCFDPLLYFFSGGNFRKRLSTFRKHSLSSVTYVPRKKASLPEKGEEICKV

Homo sapiens = species: Homo sapiens; experiment: Inhibition of inositol triphosphate IP3 at 10 uM; type: functional
[9] = biological target: T2, monoamine oxidase A (MAO-A); experiment: Inhibition of monoamine oxidase A in rat brain at 1 nM; type: tissue-based
[10] = biological target: T4, Atrial natriuretic peptide receptor 1 (Homo sapiens) (UniProt P16066); experiment: Inhibition of ANP A at 100 nM
T4 sequence (whole entry): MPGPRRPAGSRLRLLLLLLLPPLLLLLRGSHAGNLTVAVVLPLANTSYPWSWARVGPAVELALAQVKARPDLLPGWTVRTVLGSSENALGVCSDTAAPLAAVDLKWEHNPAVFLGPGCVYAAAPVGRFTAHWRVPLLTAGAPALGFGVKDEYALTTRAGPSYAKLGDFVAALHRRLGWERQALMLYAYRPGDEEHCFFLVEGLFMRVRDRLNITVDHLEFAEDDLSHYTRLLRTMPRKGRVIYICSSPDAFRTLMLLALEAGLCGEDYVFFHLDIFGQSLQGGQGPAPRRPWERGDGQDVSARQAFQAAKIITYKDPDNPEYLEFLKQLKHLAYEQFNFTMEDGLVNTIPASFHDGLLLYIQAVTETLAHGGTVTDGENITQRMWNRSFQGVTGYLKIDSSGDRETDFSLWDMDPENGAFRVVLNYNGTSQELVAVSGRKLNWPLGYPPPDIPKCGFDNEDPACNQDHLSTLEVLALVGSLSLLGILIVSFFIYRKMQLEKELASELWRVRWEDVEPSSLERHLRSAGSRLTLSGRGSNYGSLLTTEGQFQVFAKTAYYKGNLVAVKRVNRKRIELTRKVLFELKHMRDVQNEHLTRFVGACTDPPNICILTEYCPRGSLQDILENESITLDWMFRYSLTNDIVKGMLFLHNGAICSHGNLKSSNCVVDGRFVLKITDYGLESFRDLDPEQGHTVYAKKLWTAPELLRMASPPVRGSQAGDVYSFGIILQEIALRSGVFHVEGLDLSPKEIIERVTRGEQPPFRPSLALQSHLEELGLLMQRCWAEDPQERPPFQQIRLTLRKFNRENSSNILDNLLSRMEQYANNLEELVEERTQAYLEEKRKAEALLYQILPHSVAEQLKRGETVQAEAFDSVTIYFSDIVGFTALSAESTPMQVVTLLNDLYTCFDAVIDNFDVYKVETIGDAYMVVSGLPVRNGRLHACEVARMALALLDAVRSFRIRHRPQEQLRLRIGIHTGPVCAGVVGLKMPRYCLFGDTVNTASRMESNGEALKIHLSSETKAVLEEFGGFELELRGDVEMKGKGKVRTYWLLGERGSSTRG

[11] = Distribution coefficient at pH 7.4; type: physicochemical; details: octanol/water
[12] = biological target: 5-hydroxytryptamine receptor 7 (Homo sapiens, UniProt P34969); experiment: Activity at 5HT7 receptor expressed in human corneal epithelial CEPI-17-CL4 cells by adenylyl cyclase assay; type: functional, cell-based, Cornea
5-hydroxytryptamine receptor 7, sequence (P34969 whole entry): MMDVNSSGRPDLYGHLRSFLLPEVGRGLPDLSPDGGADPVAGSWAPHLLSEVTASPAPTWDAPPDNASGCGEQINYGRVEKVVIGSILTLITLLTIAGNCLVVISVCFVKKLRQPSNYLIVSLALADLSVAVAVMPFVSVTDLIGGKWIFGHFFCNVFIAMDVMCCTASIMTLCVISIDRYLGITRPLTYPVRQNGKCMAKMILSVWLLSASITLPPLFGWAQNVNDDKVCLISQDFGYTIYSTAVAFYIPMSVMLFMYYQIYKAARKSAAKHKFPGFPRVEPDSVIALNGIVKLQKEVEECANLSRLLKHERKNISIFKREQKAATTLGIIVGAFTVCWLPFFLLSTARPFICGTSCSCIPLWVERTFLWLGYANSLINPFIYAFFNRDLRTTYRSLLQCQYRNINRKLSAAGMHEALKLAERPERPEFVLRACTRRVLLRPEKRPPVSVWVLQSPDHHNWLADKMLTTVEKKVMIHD

[13] = Inhibitory activity at TBOB site in GABA gated chloride channel at 100 nM
[14] = biological target: Sodium-dependent noradrenaline transporter (Homo sapiens, UniProt P23975); experiment: Inhibition of NET at 10 uM
Sodium-dependent noradrenaline transporter, sequence (P23975 whole entry): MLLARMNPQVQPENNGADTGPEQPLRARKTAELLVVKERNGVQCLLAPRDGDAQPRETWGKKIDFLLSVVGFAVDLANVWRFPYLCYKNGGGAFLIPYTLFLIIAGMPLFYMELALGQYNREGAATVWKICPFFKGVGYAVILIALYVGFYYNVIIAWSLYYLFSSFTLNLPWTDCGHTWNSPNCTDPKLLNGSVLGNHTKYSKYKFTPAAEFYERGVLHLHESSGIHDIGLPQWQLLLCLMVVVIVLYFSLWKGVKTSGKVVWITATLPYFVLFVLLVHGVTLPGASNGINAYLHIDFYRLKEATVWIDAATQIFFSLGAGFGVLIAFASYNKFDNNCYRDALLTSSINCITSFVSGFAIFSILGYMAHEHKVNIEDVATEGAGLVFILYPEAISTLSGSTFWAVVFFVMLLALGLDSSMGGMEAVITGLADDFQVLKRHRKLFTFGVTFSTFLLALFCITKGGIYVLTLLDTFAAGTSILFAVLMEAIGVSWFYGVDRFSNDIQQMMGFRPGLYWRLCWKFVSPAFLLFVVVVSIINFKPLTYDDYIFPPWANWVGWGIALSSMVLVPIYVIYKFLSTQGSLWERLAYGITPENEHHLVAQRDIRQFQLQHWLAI

C[C@H](N)Cn1ncc2ccc(O)cc21
inhibition [1]: -6.46% | inhibition at 0.1 µM [2]: 12% | Ki [3]: > 10 µM | inhibition at 0.1 µM [4]: -22.3% | inhibition [5]: 63.3% | Ki [6]: 7.87 µM | inhibition [7]: 12% | inhibition [8]: 0.07% | inhibition (Homo sapiens): 2.11% | inhibition at 0.001 µM [9]: -14.4% | inhibition [10]: 3.01% | logD [11]: 0.693 | EC50 [12]: 5.6 µM | inhibition [13]: -5.9% | inhibition [14]: 42.6%
